Results published in patent publication US5776957A, “Nornicotine enantiomers for use as a treatment for dopamine related conditions and disease states” (The University of Kentucky Research Foundation, priority 1996, dated 1998).
“Also recorded” adds a separate entry of the source.

What was measured:
[1] = test system: nicotinic receptor sites in the brain; experiment: displacement of nicotine from nicotinic receptor sites in the brain; type: binding
[2] = test system: [3H]DA-preloaded rat striatal slices (nicotinic receptors); details: Teng et al., 1996; cited from earlier work
[3] = rats; cited from earlier work
[4] = Amphetamine drug discrimination (substitution tests); type: in vivo, rat
Protocol: Rats were trained in on two-lever food-reinforced operant tasks to discriminate amphetamine (1 mg/kg) from saline. After discrimination training stabilized, test doses of amphetamine (0.0625-2.0 mg/kg), nicotine (0.1-1.0 mg/kg) or nornicotine (1-10 mg/kg) were assessed for their ability to substitute for the amphetamine training dose during brief test sessions in which food reinforcement was withheld.
Nine male Sprague-Hawley rats were obtained from Harlan Industries (Indianapolis, Ind.) and were caged individually with water continuously available. Food access was restricted in order to maintain body weights at approximately 80% of free-feeding weight. Prior to the start of the experiment, all rats received a single injection of amphetamine (1 mg.kg, IP) as part of an unrelated experiment. Apparatus Six operant chambers (ENV-001, Med Associates, St. Albans, Vt.) enclosed in a sound attenuating environment were used. Located in the bottom center of the front panel in each chamber was a 5×4.-cm opening to a recessed food tray. Two metal response levers were located on the front panel, one on each side of the food tray. The center of each lever was mounted 7.3 cm from the grid floor. A 28-Vcue light, 3 cm in diameter, was centered 6 cm above each lever. A personal computer, interfaced to the chamber with Med Associates equipment, controlled the experimental sessions and collected data.
The general procedures utilized to establish amphetamine discrimination were similar to those outlined previously (13). Briefly, rats were first given access to food pellets (45 mg sucrose pellet, Noyes Co., Lancaster, N.H.) dispensed noncontingently into the food tray with both levers present. One lever was then removed and the rat was shaped to depress the other lever for food reinforcement. Following this, rats received 15-min daily sessions in which the lever (left or right) available for food reinforcement was alternated daily. […] The start of each session was signaled by the onset of both cue lights mounted above the levers, and the termination of each session was signaled by the offset of these lights. This training phase was continued until the rat earned 20 reinforces on an FR25 schedule for two days.
Amphetamine discrimination training was conducted Monday through Friday. For this training, both levers were mounted in the chamber. Amphetamine (A; 1 mg/kg) or saline (S), was injected IP 15 min prior to the start of the session, with the order of injections being either AASS or SSAA. The left lever was designated as the amphetamine-correct lever for 4 rats, while the right lever was amphetamine -correct for 5 rats. On Monday, Wednesday and Friday, injection-appropriate responding was food-reinforcedon an FR25 schedule for the entire 15-min session. However, 2-min extinction periods were instituted at the beginning of sessions on Tuesday and Thursday (one amphetamine and one saline test per week) to assess the control of amphetamine (or saline) over responding. […] During the remaining 13 min of these sessions, contingent reinforcement for injection-appropriate responding was reinstated. This phase of training was continued until the rat completed the first FR25 on the correct lever for 10 consecutive sessions and also completed 80% or more responses on the injection-appropriate lever during 4 consecutive extinction periods.
The substitution phase was identical to the previously described amphetamine discrimination phase, except for the Friday session, which was decreased to a 4-min extinction session with no food available.

[5] = Locomotor activity assay, acute and repeated treatment, S(-) nicotine challenge, saline challenge; type: in vivo, rat; details: for behavioral sensitization after repeated administration: 8 injections once every 48 hrs, nicotine 1 mg/kg, R(+) 0.3-10 mg/kg; for cumulated locomotor activity after saline challenge: S(-) experiment; for cross-sensitization to S(-) nicotine: repeated S(-) nornicotine
Protocol: (I mg/kg), norNIC (0.3-10 mg/kg) or R(+) norNIC (0.3-10 mg/kg) was administered peripherally (s.c., 8 injections once every 48 hrs) to groups of rats and locomotor activity was assessed for 50 min immediately after each injection.
In the present study, S(-) nicotine (1 mg/kg), R(+) nornicotine (1-10 mg/kg), S(-) nornicotine (1-10 mg/kg), or vehicle (saline) were administered s.c. to groups of rats (n=6) acutely or repeatedly (8 injections once every 48 hrs). Locomotor activity was measured during 50 min sessions immediately following drug or vehicle administration.
Male Sprague-Hawley rats (225-250 g) from Harlan Laboratories were housed two per cage with free access to food and water.
Activity was recorded automatically in a wooden test-chamber measuring 30×28×43 cm high. The chamber had white walls and a wire mesh floor over pine chip bedding. Two photobeams located 4.5 cm above the floor divided the chamber into four equal quadrants. Electromechanical equipment located in an adjacent room recorded photobeam interruptions automatically. A white noise generator provided an ambient 70 dB background noise in the test room in order to minimize extraneous sounds that might influence the animal's behavior in the test chamber. Rats were habituated to the chamber for 50 min on each of three consecutive days.
On the day immediately after the third habituation session, rats were randomly divided into groups (n=6/group) and were administered s.c. either S(-) nicotine (1 mg/kg), R(+) nornicotine (0.3, 1, 3 and 10 mg/kg), or vehicle (saline) to determine acute drug effects on locomotor activity. In a separate experiment, rats (n=6/group) were administered s.c. either S(-) nicotine (1 mg/kg), S(-) nornicotine (0.3, 1, 3 and 10 mg/kg), or vehicle (saline). To determine the effect of repeated drug administration on locomotor activity, drug or vehicle was administered respectively in the test-room once every 48 hrs for a total of 8 injections. After each injection, locomotor activity was recorded during a 50 min session (five 10-min blocks). On the ninth injection day (48 hrs following injection 8), each group of rats was administered a challenge dose (1 mg/kg) of S(-) nicotine in the test-room, and locomotor activity was determined immediately thereafter. On the tenth injection day, each group of rats was administered saline and locomotor activity recorded to determine potential conditioning effects of the repeated drug administration.
Post hoc analysis of pairwise comparisons was performed with Duncan's New Multiple Range test.

[6] = acute S(-) nornicotine 1 and 3 mg/kg
[7] = repeated S(-) nornicotine 3 mg/kg

c1cncc([C@@H]2CCCN2)c1 [S(-) nornicotine, S-(-) nornicotine]
displacement of nicotine from nicotinic receptor sites [1]: cause displacement of nicotine
antagonist sensitivity of effects [2]: inhibited by mecamylamine and DHβE
substitution for nicotine in drug discrimination [3]: substitutes fully for nicotine
total number of lever presses ([4]; 15 min): significant decreases in total number of lever presses
plateau of dose-effect curve, amphetamine-appropriate responding ([4]; 45 min): 50
total number of lever presses ([4]; 45 min): significant decrease in total number of lever presses
amphetamine-correct responding reached by individual rats ([4]; any dose, none of the rats reached): < 80%
amphetamine-appropriate responding (partial substitution) ([4]; nicotine 0.1-1.0 mg/kg, nornicotine 1-10 mg/kg): approximately 50%
amphetamine-appropriate responding ([4]; nornicotine 3 mg/kg, 15 min): Approximately 50%
amphetamine-appropriate responding (maximum) ([4]; nornicotine 10 mg/kg, 45 min): approximately 50%
amphetamine-correct responses, individual rats ([4]; nornicotine 10 mg/kg, 45 min): 33-61%
relative potency, nicotine vs nornicotine ([4]; partial substitution for amphetamine): less potent than nicotine
behavioral profile in drug discrimination ([4]; rat, in vivo): behavioral profile similar to nicotine
behavioral sensitization after repeated administration ([5]; S(-) nornicotine 10 mg/kg): produces behavioral sensitization; also recorded: behavioral sensitization following repeated administration of the high dose of S(-) nornicotine was observed
behavioral sensitization after repeated administration ([5]; S(-) nornicotine 10 mg/kg, listed as S-(-)- norNIC): produces behavioral sensitization
conditioned response to repeated administration (saline challenge) ([5]; 48 hrs after S(-) nicotine challenge): did not contribute to the observed behavioral sensitization
cumulated locomotor activity after saline challenge ([5]; 0.3 mg/kg): 352 ± 17 number of photobeam interruptions/50 min session
cumulated locomotor activity after saline challenge ([5]; 1.0 mg/kg): 333 ± 38 number of photobeam interruptions/50 min session
cumulated locomotor activity after saline challenge ([5]; 3.0 mg/kg): 394 ± 50 number of photobeam interruptions/50 min session
cumulated locomotor activity after saline challenge ([5]; 10 mg/kg): 459 ± 26 number of photobeam interruptions/50 min session
locomotor activity after the seventh injection ([5]; S(-) nornicotine 10 mg/kg, repeated): 364±32 photobeam interruptions
cumulated locomotor activity vs saline-control ([5]; acute S(-) nornicotine 0.3 mg/kg): significantly increased
locomotor activity time course ([5]; acute S(-) nornicotine 0.3 mg/kg, first 20 min): significant increase in activity
cumulated locomotor activity vs saline-control ([5]; acute S(-) nornicotine 10 mg/kg): significant decrease in activity
locomotor activity time course ([5]; acute S(-) nornicotine 10 mg/kg, first 10 min): decreased during the first 10 min of the session
cumulated locomotor activity vs saline-control [5, 6]: not different from the saline-control group
locomotor activity time course [5, 6]: not different from the saline-control group
cumulated locomotor activity vs saline-control ([5]; acute, 0.3 and 10 mg/kg, R(+) experiment): significant decrease in locomotor activity
cumulated locomotor activity vs saline-control ([5]; acute, 1 and 3 mg/kg, R(+) experiment): not different from control
locomotor activity, first 10 min ([5]; acute, S(-) nornicotine 3 mg/kg): 121±14 photobeam interruptions
cross-sensitization to S(-) nicotine [5]: cross-sensitization to S(-) nicotine was observed
tolerance to acute stimulatory effect ([5]; repeated S(-) nornicotine 0.3 mg/kg): tolerance to the acute stimulatory effect
locomotor activity, first 10 min [5, 7]: 101±12 photobeam interruptions
locomotor activity, first 10 min after S(-) nicotine challenge [5, 7]: 134±21 photobeam interruptions
tolerance to depressant effect [5, 7]: tolerance did not develop
tolerance to depressant effect ([5]; repeated S(-) nornicotine 10 mg/kg): also observed; also recorded: tolerance developed
time course after S(-) nicotine challenge ([5]; repeated S(-) nornicotine 10 mg/kg, 10-min and 30-min time points): stimulated significantly
locomotor activity time course ([5]; repeated S(-) nornicotine 10 mg/kg, 20-40 min): significantly greater than that of the saline-control group
locomotor activity vs saline-control ([5]; repeated S(-) nornicotine 10 mg/kg, last administration): stimulated significantly above that of the saline-control group
locomotor activity time course ([5]; repeated S(-) nornicotine 0.3-3 mg/kg): not different from the saline-control group
time course after S(-) nicotine challenge ([5]; repeated S(-) nornicotine 0.3 and 1 mg/kg): not different from that of the saline-control group
cumulated locomotor activity after S(-) nicotine challenge ([5]; repeated S(-) nornicotine 0.3 and 1.0 mg/kg): no effect
locomotor activity vs saline-control ([5]; repeated S(-) nornicotine 1 and 3 mg/kg): not different from that of the saline-control group
cumulated locomotor activity after S(-) nicotine challenge ([5]; repeated S(-) nornicotine 3 and 10 mg/kg): significantly stimulated locomotor activity
cross-sensitization to S(-) nicotine ([5]; listed as norNIC): cross-sensitization was observed
